Laboratory results as given in US7659293B2, “α-Amino-N-hydroxy-acetamide derivatives” (Novartis AG, priority 2001, dated 2010).

Test system: BN472 rat mammary carcinoma
Test: Spontaneous metastases model, BN472 rat mammary tumors transplanted orthotopically
Type: in vivo
Conditions: 4 weeks, vehicle control about 230
Procedure: Tumor fragments of ca. 25 mm^3 are transplanted under the mammary fat pad of female Brown-Norwegian (BN) rats. A compound of formula I is suspended in 1% carboxymethyl cellulose (CMC) in sterile water. The formulations are administered orally at doses of either 30 mg/kg once per day or 15 mg/kg twice per day. Animals in the tumor-bearing control group and the non-tumor-bearing control group (healthy rats) receive vehicle only. Treatment starts after randomization and continues for 4 weeks. Lung metastases are determined after four weeks of treatment by counting the number of lesions visible on the surface of the lungs after fixation in Bouin's fixative. In this model the compounds of formula I at a dose of either 30 mg/kg once per day or 15 mg/kg twice per day produce reductions in the incidence and/or extent of metastases in lungs and regional lymph nodes. The reduction in the median number of lung metastases or weight of regional lymph nodes is between approximately 25% and 70%. For Example, for the compound of Example 3 the median number of lung foci is about 105 for both dosages compared to a median number of about 230 lung foci in the vehicle control group. Based on the increase in body weight and general health, the compounds appear to be well tolerated. […]

O=C(CN(Cc1ccc(-n2nccn2)cc1)S(=O)(=O)c1ccc(OCC2CC2)cc1)NO [Example 3, [(4-Cyclopropylmethoxy-benzenesulfonyl)-(4-[1,2,3]triazol-2-yl-benzyl)amino]-N-hydroxy-acetamide]
median number of lung foci (15 mg/kg twice per day orally): about 105 | median number of lung foci (30 mg/kg once per day orally): about 105
